Laboratory results from patent US20100068181A1, “PYRROLO [3, 2-A] PYRIDINE DERIVATIVES FOR INHIBITING KSP KINESIN ACTIVITY” (Schering Corporation, priority 2006, published 2010).

Target: T1, KSP (Homo sapiens, UniProt P52732)
T1 sequence (P52732 1-1056): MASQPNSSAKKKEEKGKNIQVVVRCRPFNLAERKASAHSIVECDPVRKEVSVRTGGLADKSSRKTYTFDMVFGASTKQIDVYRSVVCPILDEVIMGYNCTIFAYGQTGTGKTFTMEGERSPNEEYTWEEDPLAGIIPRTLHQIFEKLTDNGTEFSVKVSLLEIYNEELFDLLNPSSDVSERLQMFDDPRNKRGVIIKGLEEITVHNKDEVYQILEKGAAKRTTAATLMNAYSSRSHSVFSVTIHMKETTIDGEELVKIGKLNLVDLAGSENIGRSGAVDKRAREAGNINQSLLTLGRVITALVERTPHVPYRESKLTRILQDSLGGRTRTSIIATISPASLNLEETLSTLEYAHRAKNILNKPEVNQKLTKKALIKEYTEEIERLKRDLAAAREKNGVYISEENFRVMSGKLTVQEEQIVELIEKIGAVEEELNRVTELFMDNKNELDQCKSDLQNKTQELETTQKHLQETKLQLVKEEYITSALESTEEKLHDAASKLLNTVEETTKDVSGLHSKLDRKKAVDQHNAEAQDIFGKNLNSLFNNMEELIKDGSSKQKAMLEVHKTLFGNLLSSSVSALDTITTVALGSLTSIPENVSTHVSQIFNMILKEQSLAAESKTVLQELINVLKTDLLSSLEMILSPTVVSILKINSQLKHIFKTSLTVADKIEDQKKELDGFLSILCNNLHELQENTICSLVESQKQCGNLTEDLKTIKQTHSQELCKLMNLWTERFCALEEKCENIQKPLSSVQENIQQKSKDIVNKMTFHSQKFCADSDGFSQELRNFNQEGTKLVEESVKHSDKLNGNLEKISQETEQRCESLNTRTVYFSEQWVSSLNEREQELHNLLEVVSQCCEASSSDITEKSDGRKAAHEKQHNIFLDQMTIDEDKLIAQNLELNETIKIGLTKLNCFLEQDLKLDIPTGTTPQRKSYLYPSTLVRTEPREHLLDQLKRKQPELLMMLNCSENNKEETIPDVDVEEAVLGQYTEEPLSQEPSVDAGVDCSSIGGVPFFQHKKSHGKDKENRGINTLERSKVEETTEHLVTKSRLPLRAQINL
Experiment: KSP inhibitory activity, end-point assay
Assay type: biochemical
Conditions: KSP inhibitory activity based on end-point assay; read-out: IC50 Rating
Excerpt: The inhibitory activity of the present compounds towards KSP may be assayed by methods known in the art, for example, by using the methods as described in the examples.

Going from `CC(C)(C)C1CCc2nc3cc(C(O)c4cccc(Cl)c4)[nH]c3cc2C1` (stereo not shown) [Example 112] to `CC(C)(C)C1CCc2nc3cc(C(=O)N[C@H](CN)c4cccc(N)c4)[nH]c3cc2C1` (stereo partly shown) [Example 123], the IC50 falls from over 10 µM to under 0.1 µM. The second is the more potent here.

`CCC(O)c1cc2nc3c(cc2[nH]1)CC(C(C)(C)C)CC3` (stereo not shown) [Example 113] and `C=CCC(O)c1cc2nc3c(cc2[nH]1)CC(C(C)(C)C)CC3` (stereo not shown) [Example 114] fall in the same range of IC50: 0.1 to 1 µM for the first, 0.1 to 1 µM for the second.

First: CC(C)(C)C1CCc2nc3c(-c4cccc(O)c4)c(C(N)=O)[nH]c3cc2C1 (stereo not shown) [Example 115]
Second: CC(C)(C)C1CCc2nc3c(-c4cccc(N)c4)c(C(N)=O)[nH]c3cc2C1 (stereo not shown) [Example 121]
The IC50 of the first is lower: 1 to 10 µM for the first, over 10 µM for the second. The first is the more potent here.

`COc1cccc(-c2c(C(N)=O)[nH]c3cc4c(nc23)CCC(C(C)(C)C)C4)c1` (stereo not shown) [Example 116] and `CC(C)(C)C1CCc2nc3c(-c4cccc(OC(F)(F)F)c4)c(C(N)=O)[nH]c3cc2C1` (stereo not shown) [Example 117] cannot be ordered by IC50: over 10 µM for the first, over 10 µM for the second.

`COc1ccc(OC)c(-c2c(C(N)=O)[nH]c3cc4c(nc23)CCC(C(C)(C)C)C4)c1` (stereo not shown) [Example 118] and `CC(C)(C)C1CCc2nc3c(-c4cccc(C#N)c4)c(C(N)=O)[nH]c3cc2C1` (stereo not shown) [Example 119] cannot be ordered by IC50: over 10 µM for the first, over 10 µM for the second.

`CC(C)(C)C1CCc2nc3c(-c4cccc(S(C)(=O)=O)c4)c(C(N)=O)[nH]c3cc2C1` (stereo not shown) [Example 120] and `CC(C)(C)C1CCc2nc3cc(C(=O)N[C@H](CN)c4ccccc4)[nH]c3cc2C1` (stereo partly shown) [Example 122] fall in the same range of IC50: 0.1 to 1 µM for the first, 0.1 to 1 µM for the second.

Compound `CC(C)(C)C1CCc2nc3cc(C(=O)N[C@H](CN)c4cccc(NC(=O)c5ccco5)c4)[nH]c3cc2C1` (stereo partly shown) [Example 124] has an IC50 of under 0.1 µM.
